{"source": "patent US10383831B2", "about": "“2,4,6-trialkoxystryl aryl sulfones, sulfonamides and carboxamides, and methods of preparation and use” (Temple University—Of The Commonwealth System Of Higher …, priority 2015, dated 2019)", "type_in_all_cases": "cell-based", "key": {"HCT-15": {"tested_on": "HCT-15", "test": "Cytotoxicity assay (viable cell count, trypan blue), HCT-15", "conditions": "Homo sapiens; HCT-15, Colo-Rectal; 96 hours continuous treatment", "method": "(§1) Cells of the cell lines listed in Table 18 (1×10^5) were plated into 6-well dishes. Twenty-four hours later, the compound of Example 1, i.e., (Z)-ethyl 3-((2-methoxy-5-(((E)-2,4,6-trimethoxystyrylsulfonyl)methyl) phenyl)amino)acrylate, or the compound of Comparative Example 1, i.e., sodium (E)-2-(5-((2,4,6-trimethoxystyrylsulfonyl)methyl)-2-methoxyphenylamino) acetate (rigosertib) was added at different concentrations over a 4 log dilution (0.001 to 10 μM). The total number of viable cells was determined after 96 hours of continuous treatment by staining with trypan blue and counting the number of non-staining cells (viable) remaining in each well using a hemacytometer. The percentage of viable cells remaining was calculated as follows: # viable cells (compound treated)/# viable cells (DMSO treated)*100. The GI50 (the concentration of drug resulting in 50% net loss of growth inhibition) was determined."}, "MIA-PaCa-2": {"tested_on": "MIA-PaCa-2", "test": "Cytotoxicity assay (viable cell count, trypan blue), MIA-PaCa-2", "conditions": "Homo sapiens; MIA-PaCa-2, Pancreatic; 96 hours continuous treatment", "method": "as §1"}, "MDA-MB-231": {"tested_on": "MDA-MB-231", "test": "Cytotoxicity assay (viable cell count, trypan blue), MDA-MB-231", "conditions": "Homo sapiens; MDA-MB-231, Breast; 96 hours continuous treatment", "method": "as §1"}, "[1]": {"tested_on": "K562 (chronic myelogenous leukaemia)", "test": "Cytotoxicity assay, K562 tumor cells", "conditions": "Homo sapiens, 96 hours treatment", "method": "(§2) The effect of the compounds of the invention on tumor cells was determined by the assay described by Latham et al., Oncogene 12:827-837 (1996). Tumor cells K562 (chronic myelogenous leukaemia) or DU145 (prostate cancer) were plated in 12-well dishes at a cell density of 2.5×10^4 cells well. The plated cells were treated 24 hours later with a compound of the invention dissolved in DMSO at multiple concentrations ranging from 0.001 to 10 μM. The plates were examined 96 hours later under an inverted microscope, Olympus CK-2 using a 10× objective, and compound activity was noted by physical observation. When necessary, the total number of viable cells was determined by trypsinizing the wells and counting the number of viable cells, as determined by trypan blue exclusion, using a hemacytometer."}, "Caov-3": {"tested_on": "Caov-3", "test": "Cytotoxicity assay (viable cell count, trypan blue), Caov-3", "conditions": "Homo sapiens; Caov-3, Ovarian; 96 hours continuous treatment", "method": "as §1"}, "CEM": {"tested_on": "CEM", "test": "Cytotoxicity assay (viable cell count, trypan blue), CEM", "conditions": "Homo sapiens, CCRF-CEM, T-Cell Lymphoma, 96 hours continuous treatment", "method": "as §1"}, "DU145": {"tested_on": "DU145", "test": "Cytotoxicity assay (viable cell count, trypan blue), DU145", "conditions": "Homo sapiens, DU-145; DU145, Prostate; 96 hours continuous treatment", "method": "as §1"}, "tumor cell lines": {"tested_on": "tumor cell lines", "test": "Cytotoxicity assay, comparison across the cell lines listed in Table 18", "conditions": "across the cell lines of Table 18; against some tumor types as much as 10-fold or even 100-fold", "method": "as §1"}, "UM-UC-3": {"tested_on": "UM-UC-3", "test": "Cytotoxicity assay (viable cell count, trypan blue), UM-UC-3", "conditions": "Homo sapiens, UMUC3; UM-UC-3, Bladder; 96 hours continuous treatment", "method": "as §1"}, "GRANTA-519": {"tested_on": "GRANTA-519", "test": "Cytotoxicity assay (viable cell count, trypan blue), GRANTA-519", "conditions": "Homo sapiens; GRANTA-519, Mantle Cell Lymphoma; 96 hours continuous treatment", "method": "as §1"}, "PC-3": {"tested_on": "PC-3", "test": "Cytotoxicity assay (viable cell count, trypan blue), PC-3", "conditions": "Homo sapiens; PC-3, Prostate; 96 hours continuous treatment", "method": "as §1"}, "DAUDI": {"tested_on": "DAUDI", "test": "Cytotoxicity assay (viable cell count, trypan blue), DAUDI", "conditions": "Homo sapiens, B-Cell Lymphoma, 96 hours continuous treatment", "method": "as §1"}, "Z1385": {"tested_on": "Z1385", "test": "Cytotoxicity assay (viable cell count, trypan blue), Z1385", "conditions": "Z1385, Mantle Cell Lymphoma; 96 hours continuous treatment", "method": "as §1"}, "RS4; 11": {"tested_on": "RS4; 11", "test": "Cytotoxicity assay (viable cell count, trypan blue), RS4; 11", "conditions": "Homo sapiens, 11, ALL-B-Cell Precursor, 96 hours continuous treatment", "method": "as §1"}, "A549": {"tested_on": "A549", "test": "Cytotoxicity assay (viable cell count, trypan blue), A549", "conditions": "Homo sapiens; A549, Non-Small Cell Lung Carcinoma; 96 hours continuous treatment", "method": "as §1"}, "K562": {"tested_on": "K562", "test": "Cytotoxicity assay (viable cell count, trypan blue), K562", "conditions": "Homo sapiens; K562, Chronic Myelogenous Leukemia; 96 hours continuous treatment", "method": "as §1"}, "T-24": {"tested_on": "T-24", "test": "Cytotoxicity assay (viable cell count, trypan blue), T-24", "conditions": "Homo sapiens; T-24, Bladder; 96 hours continuous treatment", "method": "as §1"}, "WM1617": {"tested_on": "WM1617", "test": "Cytotoxicity assay (viable cell count, trypan blue), WM1617", "conditions": "WM1617, Melanoma; 96 hours continuous treatment", "method": "as §1"}, "HCT-116": {"tested_on": "HCT-116", "test": "Cytotoxicity assay (viable cell count, trypan blue), HCT-116", "conditions": "Homo sapiens; HCT-116, Colo-Rectal; 96 hours continuous treatment", "method": "as §1"}, "MOLT-4": {"tested_on": "MOLT-4", "test": "Cytotoxicity assay (viable cell count, trypan blue), MOLT-4", "conditions": "Homo sapiens; MOLT-4, T-Cell Lymphoma; 96 hours continuous treatment", "method": "as §1"}, "HT-29": {"tested_on": "HT-29", "test": "Cytotoxicity assay (viable cell count, trypan blue), HT-29", "conditions": "Homo sapiens; HT-29, Colo-Rectal; 96 hours continuous treatment", "method": "as §1"}, "5367": {"tested_on": "5367", "test": "Cytotoxicity assay (viable cell count, trypan blue), 5367", "conditions": "5367, Bladder; 96 hours continuous treatment", "method": "as §1"}, "2008": {"tested_on": "2008", "test": "Cytotoxicity assay (viable cell count, trypan blue), 2008", "conditions": "2008, Ovarian; 96 hours continuous treatment", "method": "as §1"}, "DU145 (prostate cancer)": {"tested_on": "DU145 (prostate cancer)", "test": "Cytotoxicity assay, DU145 tumor cells", "conditions": "Homo sapiens, DU-145, 96 hours treatment", "method": "as §2"}, "N417": {"tested_on": "N417", "test": "Cytotoxicity assay (viable cell count, trypan blue), N417", "conditions": "N417, Small Cell Lung Carcinoma; 96 hours continuous treatment", "method": "as §1"}, "H1299": {"tested_on": "H1299", "test": "Cytotoxicity assay (viable cell count, trypan blue), H1299", "conditions": "Homo sapiens, NCI-H1299; H1299, Non-Small Cell Lung Carcinoma; 96 hours continuous treatment", "method": "as §1"}}}
{"smiles": "CCOC(=O)/C=C\\Nc1cc(CS(=O)(=O)/C=C/c2c(OC)cc(OC)cc2OC)ccc1OC", "note": "[Ex. 1, (Z)-ethyl 3-((2-methoxy-5-(((E)-2,4,6-trimethoxystyrylsulfonyl)methyl)phenyl)amino) acrylate]", "values": [{"measurement": "GI50", "setting": "HCT-15", "result": 7.5, "unit": "nM"}, {"measurement": "GI50", "setting": "MIA-PaCa-2", "result": 5, "unit": "nM"}, {"measurement": "GI50", "setting": "MDA-MB-231", "result": 7.5, "unit": "nM"}, {"measurement": "IC50", "setting": "[1]", "result": 0.002, "unit": "µM"}, {"measurement": "GI50", "setting": "Caov-3", "result": 4, "unit": "nM"}, {"measurement": "GI50", "setting": "CEM", "result": 7.5, "unit": "nM"}, {"measurement": "GI50", "setting": "DU145", "result": 10, "unit": "nM"}, {"measurement": "fold more active than the Comparative Example 1 compound", "setting": "tumor cell lines", "result": "at least 4 fold"}, {"measurement": "GI50", "setting": "UM-UC-3", "result": 3, "unit": "nM"}, {"measurement": "GI50", "setting": "GRANTA-519", "result": 6, "unit": "nM"}, {"measurement": "GI50", "setting": "PC-3", "result": 7.5, "unit": "nM"}, {"measurement": "GI50", "setting": "DAUDI", "result": 7.5, "unit": "nM"}, {"measurement": "GI50", "setting": "Z1385", "result": 6, "unit": "nM"}, {"measurement": "GI50", "setting": "RS4; 11", "result": 7.5, "unit": "nM"}, {"measurement": "GI50", "setting": "A549", "result": 7.5, "unit": "nM"}, {"measurement": "GI50", "setting": "K562", "result": 3, "unit": "nM"}, {"measurement": "GI50", "setting": "T-24", "result": 4, "unit": "nM"}, {"measurement": "GI50", "setting": "WM1617", "result": 3, "unit": "nM"}, {"measurement": "GI50", "setting": "HCT-116", "result": 7.5, "unit": "nM"}, {"measurement": "GI50", "setting": "MOLT-4", "result": 7.5, "unit": "nM"}, {"measurement": "GI50", "setting": "HT-29", "result": 15, "unit": "nM"}, {"measurement": "GI50", "setting": "5367", "result": 3, "unit": "nM"}, {"measurement": "GI50", "setting": "2008", "result": 6, "unit": "nM"}, {"measurement": "IC50", "setting": "DU145 (prostate cancer)", "result": 0.006, "unit": "µM"}, {"measurement": "GI50", "setting": "N417", "result": 8, "unit": "nM"}, {"measurement": "GI50", "setting": "H1299", "result": 4, "unit": "nM"}]}
